Blank lines part the entries; values can stand above or below the molecule they belong to. Oligonucleotides are written 5' to 3', each unit as a sugar letter and its base; * is a phosphorothioate linkage, no mark a phosphodiester; rarer units and linkages stand in square brackets, end groups in braces. Plain capitals give the bases only. {ppp} = triphosphate group; {Biotin} = biotin label U; r = 2'-OH (RNA)
Key:
PDC = experiment: IFN-α production in human PDC (ELISA); type: cell-based; conditions: 24 hours
Experimental: Human PBMC were prepared from whole blood donated by young healthy donors by Ficoll-Hypaque density gradient centrifugation (Biochrom, Berlin, Germany). PDC were isolated by MACS using the blood dendritic cell Ag (BCDA)-4 dendritic cell isolation kit from Miltenyi Biotec (Bergisch-Gladbach, Germany). Briefly, PDC were labelled with anti-BDCA-4 Ab coupled to colloidal paramagnetic microbeads and passed through a magnetic separation column twice (LS column, then MS column; Miltenyi Biotec). The purity of isolated PDC (lineage-negative, MHC-II-positive and CD123-positive cells) was above 95%. Before isolation of monocytes, PDC were depleted by MACS (LD column; Miltenyi Biotec) and then monocytes were isolated using the monocyte isolation kit II (Miltenyi Biotec). […] PDC cultures were additionally supplemented with 10 ng/ml IL-3 (R&D Systems). […] Vero (African green monkey kidney) and HEK 293T (human embryonic kidney) cells were maintained in Dulbecco's modified Eagle's medium supplemented with antibiotics and 5% or 10% foetal calf serum, respectively. BSR cells were propagated in Glasgow minimal essential medium supplemented with 10% newborn calf serum, phosphate broth, amino acids and antibiotics.
Human IFN-α was assessed in cell culture supernatants using the IFN-α module set (Bender MedSystems, Graz, Austria). The murine IP-10 ELISA was from Biosource (Solingen, Germany), the murine IFN-[…] ELISA was from PBL Biomedical Laboratories (Piscataway, USA). All ELISA procedures were performed, according to manufacturers' recommendations.

RIG-I [1] = molecular target: T1, RIG-I (Homo sapiens, UniProt O95786); experiment: pIFN-beta-Luc reporter assay in HEK 293 cells transfected with RIG-I; type: cell-based; set-up: Only HEK 293 cells expressing full length RIG-I responded to 5′triphosphate RNA; FLAG; expressed in transfected cells; host or cells: HEK 293; conditions: HEK 293 cells expressing full length RIG-I, 200 ng, 24 hours
T1 sequence (O95786 1-925): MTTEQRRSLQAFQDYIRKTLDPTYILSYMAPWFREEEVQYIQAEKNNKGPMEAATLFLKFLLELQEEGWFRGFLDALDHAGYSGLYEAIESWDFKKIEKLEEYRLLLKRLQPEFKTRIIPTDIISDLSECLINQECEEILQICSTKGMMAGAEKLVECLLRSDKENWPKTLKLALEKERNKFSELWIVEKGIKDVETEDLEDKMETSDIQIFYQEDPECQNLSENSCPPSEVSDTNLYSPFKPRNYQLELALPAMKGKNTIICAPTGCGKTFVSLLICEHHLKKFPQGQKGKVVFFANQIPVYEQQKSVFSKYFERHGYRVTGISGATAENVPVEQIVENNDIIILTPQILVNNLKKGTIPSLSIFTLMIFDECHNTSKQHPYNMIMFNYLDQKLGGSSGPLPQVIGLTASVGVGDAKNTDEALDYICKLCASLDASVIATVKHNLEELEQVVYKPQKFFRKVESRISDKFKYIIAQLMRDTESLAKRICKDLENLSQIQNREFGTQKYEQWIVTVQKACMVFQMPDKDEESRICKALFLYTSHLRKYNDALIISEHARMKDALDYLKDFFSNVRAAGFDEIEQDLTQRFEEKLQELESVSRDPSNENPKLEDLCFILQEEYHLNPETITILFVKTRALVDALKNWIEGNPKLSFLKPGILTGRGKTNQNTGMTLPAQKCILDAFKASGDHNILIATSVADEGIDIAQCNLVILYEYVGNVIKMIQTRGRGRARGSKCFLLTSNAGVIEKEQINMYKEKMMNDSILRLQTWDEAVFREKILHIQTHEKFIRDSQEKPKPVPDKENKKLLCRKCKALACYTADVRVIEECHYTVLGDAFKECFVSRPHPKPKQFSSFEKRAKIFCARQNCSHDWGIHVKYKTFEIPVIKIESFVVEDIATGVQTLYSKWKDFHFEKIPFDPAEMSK

PBMC = experiment: IFN-α induction in the presence of chloroquine; type: cell-based, human
human primary monocytes = experiment: IFN-α production in human primary monocytes transfected with RNA (ELISA); type: cell-based; conditions: for IFN-α production in monocytes: 200 ng RNA transfected, 24 hours, ELISA; for IFN-α-inducing activity conferred by the 5′ 4-nucleotide sequence: adenosine-initiated in vitro transcribed RNA oligonucleotides, FIG. 13; for IFN-α induction (*100%) mean: monocytes from three donors, 36 hours after transfection, normalized to the mean induction level of all oligonucleotides (=100%)
RIG-I [2] = molecular target: T1, RIG-I; experiment: Ligand binding studies: pull-down of RIG-I by biotinylated RNA; set-up: HEK 293 cells were transiently transfected with full length RIG-I, RIG-I CARD2 or RIG-I ΔHELIc; expressed in transfected cells; host or cells: HEK 293 (whole cell lysate); conditions: whole cell lysate of HEK 293 cells overexpressing full length RIG-I
Experimental: (§1) Cell lysates were prepared according to Meister et al. (G. Meister et al., Mol Cell 15, 185 (Jul. 23, 2004)) with minor modifications. HEK 293 cells were transfected using high molecular weight (25 kDa) polyethylenimine (PEI; Sigma, 40.872-7). At a confluency of 80-90%, cells were transfected with a PEI:DNA ratio of 1.5:1. 24-36 hours after transfection cells were harvested and the cell pellet was resuspended in five pellet volumes of 10 mM KCl, 1.5 mM MgCl2, 0.5 mM dithiothreitol, 10 mM HEPES-NaOH (pH 7.9), 0.5 mM PMSF and incubated for ten minutes on ice. Subsequently cells were washed and the cell pellet was resuspended in two pellet volumes of the buffer described above and homogenized by douncing. The cell nuclei were removed from the cell lysate by centrifugation at 2.000 g for ten minutes. The supernatant was transferred into microcentrifuge tubes and cleared further by centrifugation at 2.000 g for ten minutes and further centrifugation for 30 minutes at 20.000 g to obtain the cytoplasmic extract. The concentration of KCl of the extract was subsequently raised to 100 mM by addition of 2 M KCl and glycerol was added to a percentage of 10%. For purification of FLAG-tagged RIG-IC complexes, cytoplasmic extracts were incubated in FLAG M2 agarose beads (Sigma). FLAG M2 agarose beads were washed once with 0.1 M glycine (pH 3.5) and equilibrated by washing with 1 M Tris-HCl (pH 8.0). […]

Caspase-1 = Caspase-1 activation in B16 cells (western blot); type: cell-based, murine; conditions: 24 hours
Experimental: (e) B16 cells were incubated with control siRNA, 3p-2.2 and poly(I:C) for 24 hours and assessed for caspase-1 activity via immunoblotting. α-Tublin served as loading control. One representative experiment of three is shown.
(§2) For Western blotting, samples were separated by SDS-PAGE and transferred to a nitrocellulose membrane (Amersham-Biosciences, UK) by semi-dry electroblotting. As primary antibody polyclonal rat anti-RIG-I (kind gift of Dr. Kremer), polyclonal rabbit anti-Bcl-2 (Santa Cruz, sc-7382) and rabbit anti-caspase-1 (Santa Cruz, sc-7148) antibody were used. As secondary antibody, peroxidase-conjugated anti-mouse or anti-rabbit antibody (Amersham-Biosciences) were used. Bound antibodies were visualized by enhanced chemiluminescence system (ECL) according to the manufacturer's protocol (Amersham-Biosciences).

RIG-I [3] = experiment: Ligand binding studies: pull-down of RIG-I by biotinylated RNA; conditions: CARD2 and RIG-I Δ Helicase_C
Experimental: as §1

RIG-I [4] = experiment: Expression of endogenous RIG-I in B16 cells (western blot); type: cell-based, murine; conditions: 6 hours
Experimental: (b) To determine the endogenous expression of RIG-I, B16 cells were stimulated with 3p-2.2 (1.2 μg/well) and murine IFN-β (1000 U/ml). After 6 hours cells were lysed and analyzed for endogenous expression of RIG-I by Western Blot. HEK293 cells overexpressing full-length RIG-I served as positive control. One representative experiment of two is shown.
as §2

Molecule: 5′-OHAGCUUAACCUGUCCUUCAA-3′ [synthetic isRNA9.2s, reference compound]
IFN-α production in PDC (PDC): produced IFN-α
IFN-β promoter reporter expression (RIG-I [1]): did not respond

Molecule: 5′-ggGGGACGATCGTCgggggG-3′ [CpG-A ODN 2216, reference compound]
effect of increasing concentrations of chloroquine on IFN-α induction (PBMC): inhibited IFN-α induction
IFN-α production in PDC (PDC): induce IFN-α in PDC
IFN-α production in monocytes (human primary monocytes): failed to produce IFN-α
IFN-α production with chloroquine (human primary monocytes; isolated monocytes): inactive

Molecule: 5′-pppGGGAGACAGGCACCACACACACACACACUUU-3′ [tri-G-AC-U]
pull-down of full length RIG-I (RIG-I [2]): did not immunoprecipitate RIG-I

Molecule: 5′-pppGGGGAUGAACUUCAGGGUCAGCUU-3′ ({ppp}-rGrGrGrGrArUrGrArArCrUrUrCrArGrGrGrUrCrArGrCrUrU) [tri-GFPa]
IFN-α production in monocytes (human primary monocytes): comparable levels of IFN-α
IFN-β promoter reporter expression (RIG-I [1]): strongly activated reporter expression

Molecule: 5′-pppGGGGCUGACCCUGAAGUUCAUCUU-3′ [tri-GFPs]
IFN-α production in monocytes (human primary monocytes): comparable levels of IFN-α
IFN-β promoter reporter expression (RIG-I [1]): strongly activated reporter expression

Molecule: CCOCc1nc2c(N)nc3ccccc3c2n1CC(C)(C)O [R848, reference compound]
IFN-α production in PDC (PDC): induce IFN-α in PDC
IFN-α production in monocytes (human primary monocytes): failed to produce IFN-α

IFN-β promoter reporter expression (RIG-I [1]): did not respond
Molecule: Polyinosinic:polycytidylic acid [poly(I:C)]
cleavage of procaspase-1 (Caspase-1): increased cleavage of procaspase-1 to active subunit p10

Molecule: auucggggac acacacacac acacacacac (AUUCGGGGACACACACACACACACACACAC; RNA, 5' {ppp}, backbone not given here) [SEQ ID No. 144]
IFN-α-inducing activity conferred by the 5′ 4-nucleotide sequence (human primary monocytes): highest IFN-α-inducing activity
IFN-α induction (*100%) mean (human primary monocytes): 1.03 *100%

Molecule: auugggggac acacacacac acacacacac (AUUGGGGGACACACACACACACACACACAC; RNA, 5' {ppp}, backbone not given here) [SEQ ID No. 167]
IFN-α-inducing activity conferred by the 5′ 4-nucleotide sequence (human primary monocytes): highest IFN-α-inducing activity
IFN-α induction (*100%) mean (human primary monocytes): 1.31 *100%

Molecule: auuuggggac acacacacac acacacacac (AUUUGGGGACACACACACACACACACACAC; RNA, 5' {ppp}, backbone not given here) [SEQ ID No. 138]
IFN-α induction (*100%) mean (human primary monocytes): 0.99 *100%

Molecule: tri-G-AC-U-Bio: biotinylated 5′ triphosphate oligonucleotide, SEQ ID NO: 349, 3′ terminal biotinylated U (GGGAGACAGGCACCACACACACACACACUUU; RNA, 5' {ppp}, 3' {Biotin}, backbone not given here; biotin attached to the 3'-terminal U)
pull-down of full length RIG-I (RIG-I [2]): able to immunoprecipitate full length RIG-I
pull-down of truncated versions of RIG-I (RIG-I [3]): not very effective at pulling down

Molecule: tri-GFPds: annealed dsRNA molecule of tri-GFPs (SEQ ID NO: 341) and tri-GFPa (SEQ ID NO: 348) (sense {ppp}-rGrGrGrGrCrUrGrArCrCrCrUrGrArArGrUrUrCrArUrCrUrU; antisense {ppp}-rGrGrGrGrArUrGrArArCrUrUrCrArGrGrGrUrCrArGrCrUrU; in vitro transcribed strands annealed as dsRNA)
IFN-α production in monocytes (human primary monocytes): comparable levels of IFN-α
IFN-α inducing activity after cleavage of the 5′ overhang by RNAse T1 (human primary monocytes; monocytes): completely abolished the IFN-α inducing activity

B1: IFN-β: Recombinant murine IFNβ (protein, UniProt P01575 22-182, looked up)
Interferon beta: INYKQLQLQERTNIRKCQELLEQLNGKINLTYRADFKIPMEMTEKMQKSYTAFAIQEMLQNVFLVFRNNFSSTGWNETIVVRLLDELHQQTVFLKTVLEEKQEERLTWEMSSTALHLKSYYWRVQRYLKLMKYNSYAWMVVRAEIFRNFLIIRRLTRNFQN
RIG-I-expression (RIG-I [4]): strongly upregulated
